According to PubChem BioAssay (NCI):
Values joined by “and” are separate entries in the source; they are usually repeats but may differ in a detail not shown here. Identical values can stand only once.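 These data come from cells grown in 96-well plates and exposed to compound for 48 hours at five concentrations. Abbreviation: GI50, concentration required for 50% inhibition of growth. TGI denotes the concentration required for complete inhibition of growth.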

What was measured:
Test in all cases: growth of human tumour cells (NCI), 48 h
[1] = tested on: HOP-62 NSCLC
[2] = tested on: CAKI-1 renal
[3] = tested on: HCT-116 colon
[4] = tested on: U251 CNS
[5] = tested on: T-47D breast
[6] = tested on: SF-295 CNS
[7] = tested on: DU-145 prostate
[8] = tested on: NCI-H460 lung
[9] = tested on: MCF7 breast
[10] = tested on: NCI-H23 lung

Compound	GI50 [1]	TGI [1]	GI50 [2]	TGI [2]	GI50 [3]	TGI [3]	GI50 [4]	TGI [4]	GI50 [5]	TGI [5]	GI50 [6]	TGI [6]	GI50 [7]	TGI [7]	GI50 [8]	TGI [8]	TGI [9]	GI50 [10]	TGI [10]	GI50 [9]
COc1cc(O)c2c(c1)C(=O)c1cc3c(c(O)c1C2=O)C(OC1OC(C)C(O)C(O)C1OC)C(OC)C(C)(O)C3=O (stereo not drawn)	2.92 µM	26.1 µM and 9.56 µM	1.99 µM and 0.671 µM	6.82 µM and 4.95 µM	1.63 µM and 0.665 µM	6.56 µM and 5.88 µM	2.56 µM	13.2 µM and 11.8 µM	3.12 µM	9.21 µM	1.53 µM	4.7 µM and 5.97 µM	3.11 µM	11.5 µM	1270 nM	4.54 µM and 4.77 µM	6.76 µM and 6.4 µM	2.36 µM	6.03 µM and 8.08 µM	
CCOC(=O)/C(C#N)=C1/C(O)=C(C(=O)OC)C(C(=O)OC)=C1C(=O)OC				> 100 µM				> 100 µM				> 100 µM				> 100 µM			> 100 µM	
O=C(NN=C1CCCCC1)c1[nH]c2ccc(F)cc2c1-c1ccccc1	35.6 µM	> 100 µM	34.5 µM	> 100 µM			17.8 µM	37.7 µM	46.8 µM	> 100 µM	33.6 µM	> 100 µM	92.2 µM	> 100 µM	22000 nM	50.8 µM	80.4 µM	33.5 µM	> 100 µM	26.8 µM
CC1=C[P+](Cc2ccccc2)(c2ccccc2)CC1 (stereo not drawn)		> 100 µM				> 100 µM	23.1 µM and 58.1 µM and 9.71 µM	> 100 µM				> 100 µM				> 100 µM			> 100 µM	
COc1cnc2c(c1)C(=O)c1c-2n(CCCNC(C)C)c(=O)c2cc(F)ccc12	0.107 µM	0.427 µM			0.093 µM	0.328 µM	0.0788 µM	0.397 µM	0.0846 µM	0.651 µM	0.0943 µM	0.549 µM	0.21 µM	1.04 µM	42 nM	0.175 µM	2.08 µM	0.176 µM	0.676 µM	0.0318 µM
O=S(O)CCCSSc1ccccc1		> 100 µM		> 100 µM		> 100 µM		> 100 µM				> 100 µM				> 100 µM			> 100 µM	
Cc1cc2c(c3oc(C4(C)OC4C4OC4C)cc(=O)c13)C(=O)c1c(O)c(C3CC(C)(N(C)C)C(O)C(C)O3)cc(C3CC(N(C)C)C(O)C(C)O3)c1C2=O (stereo not drawn)			0.000145 µM						0.000251 µM			0.000154 µM and 0.0012 µM		0.000138 µM and 0.000556 µM	< 0.01 nM					
O=C(NO)c1ccc(Cn2c(=O)n(-c3ccccc3F)c(=O)c3ccccc32)cc1			2.25 µM	7.15 µM	1.14 µM	3.19 µM	1.55 µM	3.16 µM	1.38 µM	5.92 µM	1.66 µM	3.29 µM	2.09 µM	> 100 µM	1900 nM	10.4 µM	> 100 µM			2.21 µM
N#CCC(=O)N/N=C(\C(=O)Nc1ccc(Cl)c(Cl)c1)C1CN(c2ccccc2)N=C1N (stereo not drawn)		> 100 µM				> 100 µM		> 100 µM				> 100 µM				> 100 µM			> 100 µM	
Cc1cn2c(/C=N/N=C(N)N)c(-c3cccnc3)nc2s1	10 µM	24 µM	8.07 µM	22.4 µM	8.62 µM	37.8 µM	10.2 µM	23.7 µM	1.94 µM	12.1 µM	11.9 µM	26.5 µM			14700 nM	76.6 µM	> 100 µM	11.9 µM	25.2 µM	20.8 µM
CC[C@@H]1C[C@H]2CC3c4[nH]c5ccc(O)cc5c4CCN(C2)C31		> 100 µM		> 100 µM		> 100 µM		> 100 µM				> 100 µM				> 100 µM			> 100 µM	
CSCCOC(=O)C(=[N+]=[N-])c1ccc([N+](=O)[O-])cc1		> 100 µM		> 100 µM		> 100 µM		> 100 µM				> 100 µM				> 100 µM			> 100 µM	
CCC[CH2][Sn]1([CH2]CCC)[O]C(=O)c2ccc(C)cc2[O]1	2.16 µM	3.88 µM	0.229 µM	0.669 µM	0.985 µM	2.18 µM	0.316 µM	1.16 µM			1.21 µM	2.52 µM			1770 nM	4.12 µM		0.472 µM	1.76 µM	
COc1ccc(OC(C(=O)O)c2ccccc2)c2c1CCCC2=O (stereo not drawn)		> 100 µM		> 100 µM		> 100 µM		> 100 µM				> 100 µM				> 100 µM			> 100 µM	
CNC(=O)c1cccc2c(Nc3ccc(NS(C)(=O)=O)cc3OC)c3cccc(C)c3nc12		0.155 µM		1.41 µM		2.86 µM		0.719 µM				0.555 µM				0.816 µM			0.58 µM	
CC(C)(C)OC(=O)NC(CO)c1cccc(OCc2ccccc2)c1 (stereo not drawn)		> 100 µM		> 100 µM		> 100 µM		> 100 µM				> 100 µM				> 100 µM			> 100 µM	
CCOC(=O)[C@@H](C)C[C@H](Cc1ccccc1)NC(=O)c1csc([C@@H](C[C@H](C(C)C)N(C)C(=O)[C@H](CC)NC(=O)[C@H]2CCCCN2C)OC(C)=O)n1	0.00367 µM	> 16.7 µM	< 0.00167 µM	> 16.7 µM	< 0.00167 µM	1.68 µM	0.0031 µM	> 16.7 µM			< 0.00167 µM	> 4.03 µM	< 0.00167 µM	0.253 µM	< 1.67 nM	> 16.7 µM	> 16.7 µM	0.00476 µM	> 16.7 µM	< 0.00167 µM
CN(C)CCOC(c1ccccc1)c1ccccc1	36 µM	50.9 µM and > 100 µM	38.2 µM	52.6 µM and > 100 µM	32.1 µM	48.7 µM and > 100 µM			31.4 µM	57.2 µM and > 100 µM			40.3 µM	55.8 µM and > 100 µM	26200 nM	46 µM and > 100 µM	54 µM and > 100 µM	38 µM	53.4 µM and > 100 µM	36.5 µM
Cc1nn(-c2nc3ccccc3s2)c2c1C(=O)c1ccccc1-2		> 100 µM				> 100 µM		> 100 µM				> 100 µM				> 100 µM			> 100 µM	
